Activity calls are given as the source filed them. The rule behind the calls is not given here.
System: CCRIS mutagenicity, Ames/micronucleus/aberration tests
Assay: CCRIS mutagenicity studies
[1] = Test System: AMES SALMONELLA TYPHIMURIUM, Strain/Indicator: TA100, Metabolic Activation: NONE, Method: STANDARD PLATE

OC(c1ccc(Cl)cc1)(c1cncnc1)c1ccccc1Cl (stereo not given)
mutagenic call (End Point: In vitro chromosomal aberrations, Test System: Human lymphocytes, Metabolic Activation: None): inactive; negative
mutagenic call (End Point: In vitro chromosomal aberrations, Test System: Human lymphocytes, Metabolic Activation: S-9): inactive; negative
mutagenic call (End Point: In vivo micronucleus, Test System: Bone marrow polychromatic erythrocytes, Species: Mouse, Strain/Sex: Not specified/Male, Route: Oral): active; positive. statistically significant increase at 24 hr but no effects at 48 or 72
mutagenic call (End Point: In vivo micronucleus, Test System: Bone marrow polychromatic erythrocytes, Species: Rat, Strain/Sex: Sprague-Dawley (Male and female), Route: Oral): inactive; negative
mutagenic call (Test System: Ames Salmonella typhimurium, Strain/Indicator: TA98, Metabolic Activation: None, Method: Plate incorporation): inactive; negative
mutagenic call (Test System: Ames Salmonella typhimurium, Strain/Indicator: TA98, Metabolic Activation: Rat, Liver, S-9, Method: Plate incorporation): inactive; negative
mutagenic call (Test System: Ames Salmonella typhimurium, Strain/Indicator: TA100, Metabolic Activation: None, Method: Plate incorporation): inactive; negative
mutagenic call (Test System: Ames Salmonella typhimurium, Strain/Indicator: TA100, Metabolic Activation: Rat, Liver, S-9, Method: Plate incorporation): inactive; negative
mutagenic call (Test System: Ames Salmonella typhimurium, Strain/Indicator: TA1535, Metabolic Activation: None, Method: Plate incorporation): inactive; negative
mutagenic call (Test System: Ames Salmonella typhimurium, Strain/Indicator: TA1535, Metabolic Activation: Rat, Liver, S-9, Method: Plate incorporation): inactive; negative
mutagenic call (Test System: Ames Salmonella typhimurium, Strain/Indicator: TA1537, Metabolic Activation: None, Method: Plate incorporation): inactive; negative
mutagenic call (Test System: Ames Salmonella typhimurium, Strain/Indicator: TA1537, Metabolic Activation: Rat, Liver, S-9, Method: Plate incorporation): inactive; negative
mutagenic call (Test System: E. coli, Strain/Indicator: WP2uvrA-, Metabolic Activation: None, Method: Plate incorporation): inactive; negative
mutagenic call (Test System: E. coli, Strain/Indicator: WP2uvrA-, Metabolic Activation: Rat, Liver, S-9, Method: Plate incorporation): inactive; negative

O=C1OC(O)C(CBr)=C1Br (stereo not given)
mutagenic call [1]: active; positive

CN(C)c1ccc(Cc2ccc(N(C)C)cc2)cc1
mutagenic call (Test System: AMES SALMONELLA TYPHIMURIUM, Strain/Indicator: TA98, Metabolic Activation: HAMSTER, LIVER, S-9, AROCLOR 1254, Method: STANDARD PLATE): inactive; negative
mutagenic call (Test System: AMES SALMONELLA TYPHIMURIUM, Strain/Indicator: TA98, Metabolic Activation: HAMSTER, LIVER, S-9, Method: STANDARD PLATE): inactive; negative
mutagenic call (Test System: AMES SALMONELLA TYPHIMURIUM, Strain/Indicator: TA98, Metabolic Activation: MOUSE, LIVER, S-9, Method: STANDARD PLATE): inactive; negative
mutagenic call (Test System: AMES SALMONELLA TYPHIMURIUM, Strain/Indicator: TA98, Metabolic Activation: NONE, Method: STANDARD PLATE): inactive; negative
mutagenic call (Test System: AMES SALMONELLA TYPHIMURIUM, Strain/Indicator: TA98, Metabolic Activation: RAT, LIVER, S-9, AROCLOR 1254, Method: STANDARD PLATE): inactive; negative
mutagenic call (Test System: AMES SALMONELLA TYPHIMURIUM, Strain/Indicator: TA98, Metabolic Activation: RAT, LIVER, S-9, Method: STANDARD PLATE): inactive; negative
mutagenic call (Test System: AMES SALMONELLA TYPHIMURIUM, Strain/Indicator: TA100, Metabolic Activation: HAMSTER, LIVER, S-9, AROCLOR 1254, Method: STANDARD PLATE): inactive; negative
mutagenic call (Test System: AMES SALMONELLA TYPHIMURIUM, Strain/Indicator: TA100, Metabolic Activation: HAMSTER, LIVER, S-9, Method: STANDARD PLATE): inactive; negative
mutagenic call (Test System: AMES SALMONELLA TYPHIMURIUM, Strain/Indicator: TA100, Metabolic Activation: MOUSE, LIVER, S-9, Method: STANDARD PLATE): inactive; negative
mutagenic call [1]: inactive; negative
mutagenic call (Test System: AMES SALMONELLA TYPHIMURIUM, Strain/Indicator: TA100, Metabolic Activation: RAT, LIVER, S-9, AROCLOR 1254, Method: STANDARD PLATE): inactive; negative
mutagenic call (Test System: AMES SALMONELLA TYPHIMURIUM, Strain/Indicator: TA100, Metabolic Activation: RAT, LIVER, S-9, Method: STANDARD PLATE): inactive; negative
mutagenic call (Test System: AMES SALMONELLA TYPHIMURIUM, Strain/Indicator: TA1535, Metabolic Activation: HAMSTER, LIVER, S-9, AROCLOR 1254, Method: STANDARD PLATE): inactive; negative
mutagenic call (Test System: AMES SALMONELLA TYPHIMURIUM, Strain/Indicator: TA1535, Metabolic Activation: HAMSTER, LIVER, S-9, Method: STANDARD PLATE): inactive; negative
mutagenic call (Test System: AMES SALMONELLA TYPHIMURIUM, Strain/Indicator: TA1535, Metabolic Activation: MOUSE, LIVER, S-9, AROCLOR 1254, Method: STANDARD PLATE): inactive; negative
mutagenic call (Test System: AMES SALMONELLA TYPHIMURIUM, Strain/Indicator: TA1535, Metabolic Activation: MOUSE, LIVER, S-9, Method: STANDARD PLATE): inactive; negative
mutagenic call (Test System: AMES SALMONELLA TYPHIMURIUM, Strain/Indicator: TA1535, Metabolic Activation: NONE, Method: STANDARD PLATE): inactive; negative
mutagenic call (Test System: AMES SALMONELLA TYPHIMURIUM, Strain/Indicator: TA1535, Metabolic Activation: RAT, LIVER, S-9, AROCLOR 1254, Method: STANDARD PLATE): inactive; negative
mutagenic call (Test System: AMES SALMONELLA TYPHIMURIUM, Strain/Indicator: TA1535, Metabolic Activation: RAT, LIVER, S-9, Method: STANDARD PLATE): inactive; negative
mutagenic call (Test System: AMES SALMONELLA TYPHIMURIUM, Strain/Indicator: TA1537, Metabolic Activation: HAMSTER, LIVER, S-9, AROCLOR 1254, Method: STANDARD PLATE): inactive; negative
mutagenic call (Test System: AMES SALMONELLA TYPHIMURIUM, Strain/Indicator: TA1537, Metabolic Activation: HAMSTER, LIVER, S-9, Method: STANDARD PLATE): inactive; negative
mutagenic call (Test System: AMES SALMONELLA TYPHIMURIUM, Strain/Indicator: TA1537, Metabolic Activation: MOUSE, LIVER, S-9, AROCLOR 1254, Method: STANDARD PLATE): inactive; negative
mutagenic call (Test System: AMES SALMONELLA TYPHIMURIUM, Strain/Indicator: TA1537, Metabolic Activation: MOUSE, LIVER, S-9, Method: STANDARD PLATE): inactive; negative
mutagenic call (Test System: AMES SALMONELLA TYPHIMURIUM, Strain/Indicator: TA1537, Metabolic Activation: NONE, Method: STANDARD PLATE): inactive; negative
mutagenic call (Test System: AMES SALMONELLA TYPHIMURIUM, Strain/Indicator: TA1537, Metabolic Activation: RAT, LIVER, S-9, AROCLOR 1254, Method: STANDARD PLATE): inactive; negative
mutagenic call (Test System: AMES SALMONELLA TYPHIMURIUM, Strain/Indicator: TA1537, Metabolic Activation: RAT, LIVER, S-9, Method: STANDARD PLATE): inactive; negative
mutagenic call (Test System: AMES SALMONELLA TYPHIMURIUM, Strain/Indicator: TA1538, Metabolic Activation: HAMSTER, LIVER, S-9, Method: STANDARD PLATE): inactive; negative
mutagenic call (Test System: AMES SALMONELLA TYPHIMURIUM, Strain/Indicator: TA1538, Metabolic Activation: MOUSE, LIVER, S-9, AROCLOR 1254, Method: STANDARD PLATE): inactive; negative
mutagenic call (Test System: AMES SALMONELLA TYPHIMURIUM, Strain/Indicator: TA1538, Metabolic Activation: MOUSE, LIVER, S-9, Method: STANDARD PLATE): inactive; negative
mutagenic call (Test System: AMES SALMONELLA TYPHIMURIUM, Strain/Indicator: TA1538, Metabolic Activation: NONE, Method: STANDARD PLATE): inactive; negative
mutagenic call (Test System: AMES SALMONELLA TYPHIMURIUM, Strain/Indicator: TA1538, Metabolic Activation: RAT, LIVER, S-9, AROCLOR 1254, Method: STANDARD PLATE): inactive; negative
mutagenic call (Test System: AMES SALMONELLA TYPHIMURIUM, Strain/Indicator: TA1538, Metabolic Activation: RAT, LIVER, S-9, Method: STANDARD PLATE): inactive; negative
mutagenic call (Test System: E. COLI, Strain/Indicator: WP2 UVRA, Metabolic Activation: HAMSTER, LIVER, S-9, AROCLOR 1254, Method: STANDARD PLATE): inactive; negative
mutagenic call (Test System: E. COLI, Strain/Indicator: WP2 UVRA, Metabolic Activation: HAMSTER, LIVER, S-9, Method: STANDARD PLATE): inactive; negative
mutagenic call (Test System: E. COLI, Strain/Indicator: WP2 UVRA, Metabolic Activation: MOUSE, LIVER, S-9, AROCLOR 1254, Method: STANDARD PLATE): inactive; negative
mutagenic call (Test System: E. COLI, Strain/Indicator: WP2 UVRA, Metabolic Activation: MOUSE, LIVER, S-9, Method: STANDARD PLATE): inactive; negative
mutagenic call (Test System: E. COLI, Strain/Indicator: WP2 UVRA, Metabolic Activation: NONE, Method: STANDARD PLATE): inactive; negative
mutagenic call (Test System: E. COLI, Strain/Indicator: WP2 UVRA, Metabolic Activation: RAT, LIVER, S-9, AROCLOR 1254, Method: STANDARD PLATE): inactive; negative
mutagenic call (Test System: E. COLI, Strain/Indicator: WP2 UVRA, Metabolic Activation: RAT, LIVER, S-9, Method: STANDARD PLATE): inactive; negative
mutagenic call (Test System: MOUSE LYMPHOMA, Strain/Indicator: L5178Y (TK+/TK-), Metabolic Activation: RAT, LIVER, S-9, AROCLOR 1254, Method: SUSPENSION/PLATE): active; positive

Source: PubChem BioAssay AID1259407 (Chemical Carcinogenesis Research Information System (CCRIS), 2018)
